From article PMC5085999, “Structural Basis for Differences in Dynamics Induced by Leu Versus Ile Residues in the CD Loop of Kir Channels” (Molecular Neurobiology, 2015)
Positions count from the first letter of the chain named.

Experiments:
Assay in all cases: inside-out macropatch dose-response of channel expressed in Xenopus oocytes
Assay type in all cases: cell-based
Kir2.1 [1] = biological target: T1, Kir2.1 (Mus musculus, UniProt P35561, L222I)
T1 construct: gene Kcnj2
T1 sequence (P35561 1-428 L222I): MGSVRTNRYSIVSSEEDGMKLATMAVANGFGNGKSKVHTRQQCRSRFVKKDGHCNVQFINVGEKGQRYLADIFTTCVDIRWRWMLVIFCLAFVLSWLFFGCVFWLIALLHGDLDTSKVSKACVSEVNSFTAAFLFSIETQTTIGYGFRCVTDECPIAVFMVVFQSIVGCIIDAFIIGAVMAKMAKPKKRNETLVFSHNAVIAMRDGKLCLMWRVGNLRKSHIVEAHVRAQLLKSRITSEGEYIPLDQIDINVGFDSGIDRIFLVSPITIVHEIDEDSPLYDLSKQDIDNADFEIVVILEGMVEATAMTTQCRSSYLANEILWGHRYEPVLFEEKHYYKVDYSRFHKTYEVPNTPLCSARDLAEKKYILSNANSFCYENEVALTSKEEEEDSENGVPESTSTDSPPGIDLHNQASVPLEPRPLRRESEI

Kir2.2 [2] = biological target: T2, Kir2.2 (Homo sapiens, UniProt Q14500, I223L)
T2 construct: gene KCNJ12
T2 sequence (Q14500 1-433 I223L): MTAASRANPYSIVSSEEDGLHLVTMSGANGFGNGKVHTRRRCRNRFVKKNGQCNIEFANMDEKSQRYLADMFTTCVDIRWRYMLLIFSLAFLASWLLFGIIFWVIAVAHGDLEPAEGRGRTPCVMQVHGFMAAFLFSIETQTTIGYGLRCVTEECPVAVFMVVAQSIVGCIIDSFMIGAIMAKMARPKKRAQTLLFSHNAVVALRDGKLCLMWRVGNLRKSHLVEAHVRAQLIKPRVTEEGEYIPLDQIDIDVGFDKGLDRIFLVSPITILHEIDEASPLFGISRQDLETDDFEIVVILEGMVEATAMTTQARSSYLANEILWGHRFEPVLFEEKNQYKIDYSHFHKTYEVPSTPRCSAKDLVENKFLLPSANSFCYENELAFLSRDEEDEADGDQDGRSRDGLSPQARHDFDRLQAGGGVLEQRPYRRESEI

Kir2.2 [3] = biological target: T3, Kir2.2 (Homo sapiens, UniProt Q14500)
T3 construct: gene KCNJ12
T3 sequence (Q14500 1-433): T2 sequence (Q14500 1-433 I223L) with L223I

Kir2.1 [4] = biological target: T4, Kir2.1 (Mus musculus, UniProt P35561)
T4 construct: gene Kcnj2
T4 sequence (P35561 1-428): T1 sequence (P35561 1-428 L222I) with I222L

An EC50 (Kir2.1 [1]) of 14 ± 0.98 µM, an EC50 (Kir2.2 [2]) of 1.9 ± 0.23 µM and an EC50 (Kir2.2 [3]) of 6.14 ± 0.45 µM were found for CCCCCCCC(=O)OC[C@H](COP(=O)(O)O[C@@H]1[C@H](O)[C@H](O)[C@@H](OP(=O)(O)O)[C@H](OP(=O)(O)O)[C@H]1O)OC(=O)CCCCCCC [diC8 PIP2] in this work. The EC50 (Kir2.1 [4]) was 2.89 ± 0.31 µM.
